Measured values taken from paper PMC6627197, “Development of a High Throughput Screen for the Identification of Inhibitors of Peptidoglycan O-Acetyltransferases, New Potential Antibacterial Targets” (Antibiotics, 2019).
Converted amounts (≈) assume the structure as drawn. “Also recorded” adds a separate entry of the source. Like-named read-outs stand apart in the source and are kept apart here.

Tests used:
NgPatB [1] = biological target: T1, NgPatB (Neisseria gonorrhoeae, UniProt Q5F966); assay: NgPatB esterase inhibition, chromogenic assay with pNP-Ac as substrate; assay type: biochemical
T1 sequence (Q5F966 entry or part of it): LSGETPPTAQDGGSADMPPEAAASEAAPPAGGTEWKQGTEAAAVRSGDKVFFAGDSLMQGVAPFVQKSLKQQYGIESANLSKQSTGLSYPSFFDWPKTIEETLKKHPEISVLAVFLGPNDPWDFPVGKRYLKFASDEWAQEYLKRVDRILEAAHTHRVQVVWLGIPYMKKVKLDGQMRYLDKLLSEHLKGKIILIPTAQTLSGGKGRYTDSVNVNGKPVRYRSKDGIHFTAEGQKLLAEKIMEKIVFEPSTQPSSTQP
Procedure: (§1) With fluorometric assays, fluorescence quenching by compounds in the libraries could lead to their false identification as inhibitors. Thus, to confirm their inhibitory activity, we also tested esculin, esculetin, and scopoletin as inhibitors of PatBΔ69 and SaOatAΔ435 esterase activity using the chromogenic pNP-Ac as substrate. […] .
(§2) Hits which were seen to affect NgPatBΔ100 esterase activity in a dose dependent manner were also tested as inhibitors of the enzyme (0.75 µM, final concentration) using 2 mM pNP-Ac as substrate to identify false positives, due to fluorescence quenching under similar assay conditions. Similarly, hits which were seen to affect SaOatAΔ445 esterase activity in a dose dependent manner were also tested as inhibitors of the enzyme at 1.5 µM (final concentration) using 1.1 mM pNP-Ac.

[2] = Solubility limit in growth assays
SaOatA [3] = biological target: T2, SaOatA (Staphylococcus aureus, UniProt Q2FV54); settings: cited from earlier work
T2 sequence (Q2FV54 435-603): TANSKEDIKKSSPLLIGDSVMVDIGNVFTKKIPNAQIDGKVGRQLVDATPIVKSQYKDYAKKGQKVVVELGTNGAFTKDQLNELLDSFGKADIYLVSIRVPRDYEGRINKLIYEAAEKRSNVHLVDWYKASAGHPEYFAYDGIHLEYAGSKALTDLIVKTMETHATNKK

SaOatA [4] = biological target: T2, SaOatA; assay: biochemical; settings: for activity at 10 µM: pH 7, read-out: SaOatA 4MU-Ac 1° Screen (% RA)
SaOatA [5] = biological target: T2, SaOatA; assay: SaOatA esterase inhibition, chromogenic assay with pNP-Ac as substrate; assay type: biochemical
Procedure: as §1, §2

NgPatB [6] = biological target: T1, NgPatB; assay: NgPatB esterase inhibition, fluorometric assay with 4MU-Ac as substrate (HTS, dose response, Ki); assay type: biochemical; settings: for Mode of inhibition of NgPatB: 4MU-Ac as substrate, double reciprocal plot; for activity at 10 µM: pH 7, read-out: NgPatB 4MU-Ac 1° Screen (% RA)
Procedure: Determinations of Ki and mode of inhibition of NgPatBΔ100 were conducted using 4MU-Ac as a substrate. […] Initial velocities of substrate hydrolysis were obtained by fluorescence emission at 420 nm (390 nm excitation).
A large scale HTS was conducted at the SPARC BioCentre Drug Discovery Facility (The Hospital for Sick Children, Toronto, Canada) to identify additional inhibitors of PatBΔ100 acetylesterase activity. A total of 68,928 compounds were tested in singlicate, including 14,400 from the Maybridge HitFinder Collection, 50,000 from the ChemBridge DIVERset Collection, and 4,480 compounds representing plates 1–15 of the GlycoNET ChemBridge Collection maintained at the facility. The 4MU-Ac served as the substrate in the 384-well microtiter plate (NUNC 262260) fluorescent assay described above. The assay was optimized for use with this facility by altering enzyme and substrate concentrations, in addition to incubation times and reaction volume. As for the pilot screen, a Z’ for the assay was determined using Equation (1). […] This was followed by dispensing final concentrations of 20 µM compounds from the Maybridge HitFinder and ChemBridge DIVERset Collections or 10 µM compounds from the GlycoNET ChemBridge Collection using an Echo® 550 acoustic dispenser (Labcyte).

S. aureus ATCC 6538 = assay: Microtiter plate growth / MIC assay, S. aureus; settings: Staphylococcus aureus, ATCC6538, read-out: Growth of S. aureus ATCC 6538, % of control growth level reached
E. coli BL21 = assay: Microtiter plate growth / MIC assay, E. coli (negative control organism); settings: for Effect on growth of E. coli: within solubility limits
N. gonorrhoeae FA1090 = assay: Microtiter plate growth / MIC assay, N. gonorrhoeae
SaOatA [7] = biological target: SaOatA (Staphylococcus aureus, UniProt Q2FV54); assay type: biochemical; settings: variant SaOatA445 (SaOatAΔ445), 5 µM enzyme, pH 6.5
NgPatB [8] = biological target: T1, NgPatB; assay type: biochemical; settings: 3 µM enzyme, pH 7.0
SaOatA [9] = biological target: T2, SaOatA; settings: 10 µM
[10] = read-out: SaOatA 4MU-Ac IC50, 4MU-Ac as substrate, values marked 2 in Table 1
[11] = listed as benzothiazolyl-pyrazolo-pyridine

Row | SMILES | IC50 (NgPatB [1]) [µM] | IC50 (SaOatA [3]; [10]) [µM] | IC50 (SaOatA [5]) [µM] | IC50 (NgPatB [6]) [µM] | activity at 10 µM (SaOatA [4]) [%] | activity at 10 µM (NgPatB [6]) [%] | also measured
1 | O=c1ccc2cc(O[C@@H]3O[C@H](CO)[C@@H](O)[C@H](O)[C@H]3O)c(O)cc2o1 [Esculin] | 923 ± 9 | 75.8 ± 1 | 1350 ± 150 | 49.7 ± 3 | – | – | solubility [2]: 2050 µg/mL (≈ 6020 µM); remaining activity at 10 µM (SaOatA [4]; read-out: SaOatA 4MU-Ac 1° Screen (% RA)): 47.8%; remaining activity at 10 µM (NgPatB [6]; read-out: NgPatB 4MU-Ac 1° Screen (% RA)): 38.4%
2 | O=c1ccc2cc(O)c(O)cc2o1 [Esculetin] | 853 ± 79 | 106 ± 1.2 | 600 ± 140 | 53.1 ± 1 | 71 | 55.7 | activity at 512 µg/mL (S. aureus ATCC 6538): 10%; MIC (E. coli BL21; Escherichia coli, BL21, read-out: MIC, E. coli BL21): 512 µg/mL (≈ 2870 µM); activity at 512 µg/mL (N. gonorrhoeae FA1090; Neisseria gonorrhoeae, FA1090, read-out: Growth of N. gonorrhoeae FA1090, % of control growth level reached): 25%; Ki (NgPatB [6]): 86.7 ± 4.7 µM; Mode of inhibition of NgPatB (NgPatB [6]): competitive inhibitor
3 | O=c1ccc2ccccc2o1 [Coumarin, 1,2-benzopyrone] | – | – | – | – | 106 | 82.5 | –
4 | CCCCn1c(C)c2c(=O)n(-c3nc4ccccc4s3)[nH]c2cc1=O [Compound 89224] | – | – | – | 22.1 ± 1.2 | 99.8 | 78.8 | Effect on growth of E. coli (E. coli BL21): did not affect the growth; also recorded: not affected; Effect on growth of E. coli (E. coli BL21; [11]): unaffected; solubility [2]: ~177 µg/mL (≈ 499 µM); Reduction in growth of N. gonorrhoeae (N. gonorrhoeae FA1090; 177 µg/mL, OD 600 nm vs control lacking compound): 90%; Ki (NgPatB [6]): 126 ± 19 µM; Mode of inhibition of NgPatB (NgPatB [6]): mixed/non-competitive inhibitor; Mode of inhibition of NgPatB (NgPatB [6]; [11]): non-competitive inhibitor
5 | CC(=O)Oc1ccc([N+](=O)[O-])cc1 [pNP-Ac, p-nitrophenyl acetate] | – | – | – | – | – | – | Km (SaOatA [7]): 1140 µM; kcat (SaOatA [7]): 0.047 sec‐1; Km (NgPatB [8]; variant NgPatB69 (NgPatBΔ69)): 1770 µM; kcat (NgPatB [8]; variant NgPatB69 (NgPatBΔ69)): 0.14 sec‐1; Km (NgPatB [8]; variant NgPatB100 (NgPatBΔ100)): 2060 µM; kcat (NgPatB [8]; variant NgPatB100 (NgPatBΔ100)): 0.44 sec‐1
6 | O=c1ccc2ccc(O)cc2o1 [Umbelliferone, 7-hydroxycoumarin] | > 3000 | 98.5 ± 1.1 | > 3000 | 530 ± 70 | – | – | –
7 | COc1cc2ccc(=O)oc2cc1O [Scopoletin] | 792 ± 7 | 103 ± 1.1 | 1170 ± 100 | 47.9 ± 4 | 21.4 | 30 | solubility [2]: 480 µg/mL (≈ 2500 µM)
8 | Cc1cc(=O)oc2cc(O)c(O)cc12 [4-Me-esculetin] | – | – | – | – | 98.3 | 92 | –
9 | O=C1c2ccccc2C(=O)c2c(O)c(O)cc(O)c21 [purpurin, 1,2,4-trihydroxy-anthraquinone, reference compound] | – | – | – | – | – | – | Identified in pilot HTS as inhibitor of SaOatA (SaOatA [9]): not identified; IC50 (SaOatA [3]; read-out: IC50 for SaOatA, earlier preliminary characterization): ~1100 µM; Identified in pilot HTS as inhibitor of NgPatB (NgPatB [6]; pilot HTS, 10 µM): not identified
10 | Cc1cc(=O)oc2cc(O)ccc12 [Hymercrome, 7-hydroxy-4-methyl-coumarin, reference compound] | > 3000 | – | > 3000 | 615 ± 10 | 67.8 | 42.9 | IC50 (SaOatA [4]): > 3000 µM
11 | COc1cc2oc(=O)ccc2cc1O [Isoscopoletin] | – | – | – | – | 115 | 53.5 | –
